Reference: patent publication US20240270810A1, “PREPARATION AND APPLICATION OF POLYPEPTIDE” (GUANGDONG RAYNOVENT BIOTECH CO., LTD., priority 2021, published 2024)

Key:
[1] = in vivo; parameters: species or system SD rats; conditions: rat, sc, 0.048 mg/kg; for Cmax: Sprague-Dawley
Description: The pharmacokinetic characteristics in rodent animals following subcutaneous injection of the compounds were tested using standard protocols. In the experiment, the candidate compounds were formulated into clear solution, which was administered to rats by single subcutaneous injection (SC, 0.048 mpk). The vehicle for injection was citrate buffer solution (20 mM, pH=7). The whole blood was collected and processed to get the plasma. The drug concentration was analyzed by LC-MS/MS, and the pharmacokinetic parameters were calculated using Phoenix WinNonlin software.

[2] = in vivo; parameters: species or system C57BL/6 mice; conditions: sc, 0.048 mg/kg
Description: The pharmacokinetic characteristics in rodent animals following subcutaneous injection of the compounds were tested using standard protocols. In the experiment, the candidate compounds were formulated into clear solution, which was administered by subcutaneous injection (SC, 0.048 mpk). The vehicle for subcutaneous injection was citrate buffer solution (20 mM, pH=7). The whole blood was collected and processed to get the plasma. The drug concentration was analyzed by LC-MS/MS, and the pharmacokinetic parameters were calculated using Phoenix WinNonlin software.

[3] = in vitro; assay type: in vitro ADME; conditions: human, plasma
Description: • 1. Before the experiment, the clotted frozen plasma was thawed in a water bath at 37° C. The resulting plasma was centrifuged at 4000 rpm for 5 min. If there is blood clot, remove the clot and adjust the pH to 7.4±0.1. • 2. The test compound solution was prepared by diluting the compounds with DMSO to prepare a solution of 100 μM. • 3. 98 μL of plasma, as a blank control, was added with 2 μL of the test compound solution (100 μM) to get a mixed solution with a final concentration of 2 μM, which was incubated in a water bath at 37° C. • 4. 100 μL of H3PO4 solution and 800 μL of stop solution (a 100% solution of 200 ng/mL tolbutamide and 200 ng/ml labetalol in methanol) were respectively added at each time point (0, 10, 30, 60, and 120 min) to precipitate protein, which was then mixed thoroughly. • 5. The samples were centrifuged at 4000 rpm for 20 min, and 100 μL of supernatant was taken from each well for LC-MS/MS analysis.

[4] = test system: human plasma albumin; assay type: in vitro ADME
Description: (§1) To study the binding of the test compounds to human/mouse plasma albumin. • 1. Blank matrix preparation: On the day of the experiment, the plasma was thawed in cold water and centrifuged at 3220 rpm for 5 min to remove all the blood clots. The pH of the resulting plasma was measured and adjusted to 7.4±0.1 with 1% of phosphoric acid or 1 N of sodium hydroxide as desired. • 2. Dilution of the test compounds: the test compounds were dissolved in dimethyl sulfoxide (DMSO) to prepare stock solutions of 10 mM and 2 mM, respectively. 2 μL of the stock solution (2 mM) was diluted with 98 μL of DMSO to obtain a working solution of 40 μM. 10 μL of the stock solution was diluted with 240 μL of DMSO to obtain a working solution of control compounds of 400 μM. A working solution of the compounds (5 μL) was mixed evenly with a blank matrix (995 μL) at a ratio of 1:200 to prepare a loading matrix. • 3. Analytical procedure • 3.1 Equal amounts of 30 μL of the loading matrix (n=2) were transferred into a sample collection plate to prepare Time 0 (T0) samples for residue determination. The samples were immediately matched with corresponding blank buffer to a final volume of 60 μL, with a volume ratio of plasma (the loading matrix) to buffer being 1:1 in each well. Then, into the T0 samples of the test compounds were respectively added 60 μL of 4% H3PO4 in H2O and 480 μL of stop solution containing internal standard. They were then stored at 2° C. to 8° C. together with other samples for further treatment. • 3.2 The remaining plasma samples were pre-incubated in a carbon dioxide incubator at 37±1° C. for 30 min. Protein-free samples (F samples) were prepared. Matrix-loaded samples (230 μL) were all transferred into polycarbonate tubes (n=2) and ultracentrifuged at 37° C. and 155,000×g (35000 rpm) for 4 h. • 3.3 To prepare T samples (test samples), an additional matrix-containing sample was transferred into a separate 96-well plate (sample incubation plate) and incubated at 37° C. for 4 h. • 3.4 At the end of centrifugation, 30 μL of protein-free samples (F samples) and 30 μL of T samples were taken from the second layer (beneath the upper layer) of the supernatant and transferred into a new sample collection plate. Each sample was mixed with corresponding blank buffer or matrix to a final volume of 60 μL, and the blank matrix:buffer volume ratio is 1:1. Into all the samples were added 60 μL of 4% H3PO4 solution in water and 480 μL of stop solution containing internal standard. The mixture was centrifuged at 4000 rpm for 20 min. 100 μL of supernatant for each sample was taken for LC-MS/MS analysis.

[5] = test system: mouse plasma albumin; assay type: in vitro ADME
Description: as §1

Row | SMILES | Cmax [1] | AUC(0-t) [1] | Tmax [1] | half-life [1] | Cmax ([2]; C57BL/6, mouse) | AUC(0-t) ([2]; mouse) | Tmax ([2]; mouse) | half-life ([2]; mouse) | half-life [3] | PPB % unbound (H/M), H [4] | PPB % unbound (H/M), M [5] | Tmax ([1]; SD) | Tmax ([2]; C57BL/6, mouse) | half-life at 2 μM ([3]; pH 7.4)
1 | CC[C@H](C)[C@H](NC(=O)[C@H](CC(C)C)NC(=O)[C@H](Cc1c[nH]c2ccccc12)NC(=O)[C@H](CCC(=O)O)NC(=O)[C@@H](NC(=O)[C@H](Cc1ccccc1)NC(=O)[C@H](C)NC(=O)[C@@H]1CCCCNC(=O)CN(C(=O)COCCOCCNC(=O)COCCOCCNC(=O)CC[C@H](NC(=O)CCCCCCCCCCCCCCCCCCC(=O)O)C(=O)O)CC(=O)NCCCC[C@H](NC(=O)[C@H](CCCCN)NC(=O)[C@H](CC(=O)O)NC(=O)[C@H](CC(C)C)NC(=O)C(C)(C)NC(=O)[C@@H](NC(=O)[C@H](CO)NC(=O)[C@H](Cc2ccc(O)cc2)NC(=O)[C@H](CC(=O)O)NC(=O)[C@H](CO)NC(=O)[C@@H](NC(=O)[C@H](Cc2ccccc2)NC(=O)[C@@H](NC(=O)CNC(=O)[C@H](CCC(=O)O)NC(=O)C(C)(C)NC(=O)[C@@H](N)Cc2ccc(O)cc2)[C@@H](C)O)[C@@H](C)O)[C@@H](C)CC)C(=O)N[C@@H](C)C(=O)N[C@@H](CCC(N)=O)C(=O)N1)C(C)C)C(=O)N[C@@H](C)C(=O)NCC(=O)NCC(=O)N1CCC[C@H]1C(=O)N[C@@H](CO)C(=O)N[C@@H](CO)C(=O)NCC(=O)N[C@@H](C)C(=O)N1CCC[C@H]1C(=O)N1CCC[C@H]1C(=O)N1CCC[C@H]1C(=O)N[C@@H](CO)C(N)=O [WX-005] | 28 nM | 1.15 µM·h | 16 h | 21 h | 79 nM | 2.24 µM·h | 12 h | 16 h | > 4.82 h | NA/NA | NA/NA |  |  | 
2 | CC[C@H](C)[C@H](NC(=O)[C@H](CC(C)C)NC(=O)[C@H](Cc1c[nH]c2ccccc12)NC(=O)[C@H](CCC(=O)O)NC(=O)[C@@H](NC(=O)[C@H](Cc1ccccc1)NC(=O)[C@H](CCC(=O)O)NC(=O)[C@@H]1CCCCNC(=O)CN(C(=O)COCCOCCNC(=O)COCCOCCNC(=O)CC[C@H](NC(=O)CCCCCCCCCCCCCCCCCCC(=O)O)C(=O)O)CC(=O)NCCCC[C@H](NC(=O)[C@H](CCCCN)NC(=O)[C@H](CC(=O)O)NC(=O)[C@H](CC(C)C)NC(=O)C(C)(C)NC(=O)[C@@H](NC(=O)[C@H](CO)NC(=O)[C@H](Cc2ccc(O)cc2)NC(=O)[C@H](CC(=O)O)NC(=O)[C@H](CO)NC(=O)[C@@H](NC(=O)[C@H](Cc2ccccc2)NC(=O)[C@@H](NC(=O)CNC(=O)[C@H](CCC(=O)O)NC(=O)C(C)(C)NC(=O)[C@@H](N)Cc2ccc(O)cc2)[C@@H](C)O)[C@@H](C)O)[C@@H](C)CC)C(=O)N[C@@H](C)C(=O)N[C@@H](CCC(N)=O)C(=O)N1)C(C)C)C(=O)N[C@@H](C)C(=O)NCC(=O)NCC(=O)N1CCC[C@H]1C(=O)N[C@@H](CO)C(=O)N[C@@H](CO)C(=O)NCC(=O)N[C@@H](C)C(=O)N1CCC[C@H]1C(=O)N1CCC[C@H]1C(=O)N1CCC[C@H]1C(=O)N[C@@H](CO)C(N)=O [WX-009] | 24 nM |  |  |  | 59 nM |  |  |  |  | NA/NA | NA/NA | 20 h | 12 h | > 4.82 h
